Data set [1] deals with Passive cutaneous anaphylaxis (PCA). The data set is described as follows: Inhibition of passive cutaneous anaphylaxis (PCA). The note with it: Rattus norvegicus, 1 h, read-out: % inhibition of Passive cutaneous anaphylaxis (PCA). The data set is classed as in vivo, Sprague-Dawley rats. The procedure:
(§1) 1. Determining Inhibition of Passive Cutaneous Anaphylaxis (PCA) and Histamine-Induced Anaphylactoid Cutaneous Reaction
The PCA reaction is carried out following the methods described by Goose et al. (J.N. Immunology 16 (1969), 749) and by Martin et al. (Arch. Pharmacol. 316 (1981), 186).
The IgE-rich ovalbumin antiserum used in the test was obtained from immunized Brown-Norway rats. The were immunized with an intraperitoneal injection of a mixture of 100 μg of ovalbumin with a Bordetella pertussis suspension (Vaxicoq™, Manufactured by Institute Merieux, containing 5×10^9 organisms and 1.25 mg Al(OH)3). After 20 days the animals were re-immunized with a further intraperitoneal injection of a solution of 10 μg ovalbumin in 0.5 ml physiological saline solution. After a further four days the blood was removed from the animals and centrifuged. The resulting antiserum was stored at -20° C. until use.
(§2) The inhibition of the passive cutaneous anaphylaxis and of the anaphylactoid cutaneous reaction induced by histamine was determined as follows:
Sprague-Dawley rats having a body weight of 150-180 g were injected intradermally in one flank with 50 μl of a 1:75 dilution of the IgE-rich ovalbumin antiserum in physiological saline solution to passively sensitize them to ovalbumin.
24 hours after sensitization a solution of 8.25 mg/kg of ovalbumin and 26.4 mg/kg of a blue dye (Evans's Blue) was administered to the rats intravenously according to Martin et al. to trigger passive cutaneous anaphylaxis.
(§3) On the day of the experiment the test substances were dissolved in distilled water which contained 1 vol. % dimethylformamide and 1 vol. % of Tween™ 20 (=polyoxyethylene (20) sorbitan monolaurate). One hour before administration of the ovalbumin challenge, each animal was orally administered 2×10^-5 mole/kg of test substance in 0.5 ml of solution. For comparison purposes a control group received only the solvent.
(§4) The edematous anaphylactic (PCA) and anaphylactoid (histamine-induced) reactions caused by the stimulation of the intravenous ovalbumin injection, which manifested themselves by edema formation, swelling and exudation of blue dye, were evaluated 30 minutes after their initiation by the intravenous ovalbumin injection. This was done by visually determining the extent to which the blue dye emerged at the sites of edema formation. The percentage inhibition of anaphylactic and anaphylactoid reactions induced by the test substances in comparison with the reactions of the control animals not treated with any test substance was determined using comparison scales.
(§5) The results obtained using compounds of formula I according to the foregoing test methods are shown in the following Table A. The example numbers given for the compounds of formula I relate to the subsequent preparative examples.

Data set [2] deals with Histamine-induced anaphylactoid reaction. The data set is described as follows: Inhibition of histamine-induced anaphylactoid cutaneous reaction. The data set is classed as in vivo, Sprague-Dawley rats. The note with it: Rattus norvegicus, 1 h, read-out: % inhibition of Histamine-induced anaphylactoid reaction. The procedure:
as §1, §2
To determine the histamine-induced anaphylactoid skin reaction, the animals are injected intradermally in the flank opposite to the antiserum administration with 50 μl of a physiological saline solution containing 0.8 mg/ml histamine directly before the intravenous injection of the solution containing the ovalbumin and the blue dye.
as §3, §4, §5

The test system of data set [3] is cyclooxygenase (6-keto-PGF1α release). Nature of the data set: Cyclooxygenase inhibition: 6-keto-PGF1α release from zymosan-stimulated mouse peritoneal macrophage cells. The class given is cell-based. The note with it: Peritoneal macrophage cell; zymosan-stimulated mouse peritoneal macrophage cells, 10^-5 mole/l; read-out: In vitro % inhibition upon release of 6-keto-PGF1α. The text has this:
(§6) 5. In vitro Determination of Cyclooxygenase Inhibition and 5-Lipoxygenase Inhibition
(§7) After a cell is activated, arachidonic acid contained in cell membranes is metabolized in two ways. Leucotrienes, inter alia leucotriene C4, are formed due to the action of the enzyme 5-lipoxyqenase (=5-LO), and prostanoids are formed due to the action of the enzyme cyclooxygenase (=CO). In in vitro systems these metabolites are secreted from the cell.
(§8) To evaluate the cyclooxygenase-inhibiting and 5-lipoxygenase-inhibiting properties of the test substances, their inhibitory activity on the biosynthesis of the arachidonic acid derivatives leucotriene C4 (=LTC4) and 6-keto-prostaglandin F1α (=6-keto-PGF1 α) was determined in vitro on mouse peritoneal macrophage cells. For this purpose the LTC4 and 6-keto-PGF1 α contents of a mouse peritoneal macrophage cell culture medium were determined by zymosan stimulation as described by Scott et al. (J. Exp. Med. 152 (1980), 324-335) and by Fradin et al., (Prostaglandins, 33 (1987), 579-589).
(§9) A cell suspension containing peritoneal cells from male mice 8-10 weeks old was obtained in a known manner. A solution marketed under the designation RPMI 1640 (Manufactured by Gibco) was used as the cell culture medium, to which heparin (10 international units/ml) and antibiotics were added according to the procedure of Bonney et al. (Biochem. J. 176 (1978) 422-433). The cell suspension was adjusted to a cell concentration of 10^6 cells per ml and distributed uniformly on titer dishes containing 24 1-ml titer cells (wells). These were kept for two hours in a humidified incubator filled with air enriched with 7% CO2. Cells not adhering to the titer well walls were then removed by washing. The remaining macrophage cells adhering to the walls were incubated for about 12 hours in a suspension medium to which 0.1% of bovine serum albumin (BSA=Bovine Serum Albumin) was added. The suspension medium was then replaced by a Hanks salt solution (=Hanks Balanced Salt Solution=HBSS) with 10 mmoles of Hepes (=hydroxyethylpiperazinoethanesulfonic acid) to which a 0.1% strength solution of the test substances in aqueous, 1% strength dimethylformamide or only the solvent had been added. After 15 minutes the arachidonic acid metabolism was stimulated by adding […] of zymosan (=glycoprotein mixture isolated from cell walls of beer yeast, Saccharomyces cerevisiae, Manufactured by Sigma Chemical Co., Munich) per titre cell. After 2 hours samples of the respective supernatant liquid in each cell were examined for their 6-keto-PGF1α and LTC4 contents by an enzyme immunoassay (=EIA). This EIA is carried out following the method of Pradelles et al. (Analytical Chem. 57 (1985), 1170-1173). The determination of LTC4 and the determination of 6-keto-PGF1α were each carried out on suitable dilutions of the samples (1:50 to 1:250 for the LTC4 determination and 1:250 to 1:1,250 for the 6-keto-PGF1α determination) in comparison with a comparative scale. To determine the inhibiting effect of a 10^-5 molar concentration of the compounds, the amounts of reference eicosanoid were determined, and the inhibiting effect was calculated therefrom in % inhibition compared to the measurements of the zymosan controls.

Data set [4] deals with 5-lipoxygenase (LTC4 release). The data set is described as follows: 5-Lipoxygenase inhibition: LTC4 release from zymosan-stimulated mouse peritoneal macrophage cells. The class given is cell-based. The note with it: Peritoneal macrophage cell; zymosan-stimulated mouse peritoneal macrophage cells, 10^-5 mole/l; read-out: In vitro % inhibition upon release of LTC4.
From the text: as §6, §7, §8, §9

The subject of another data set is mice. The data set is described as follows: Determination of minimum toxic dose. The class given is in vivo. The note with it: mouse, per os; lowest dose producing death or severe toxic symptoms, maximum dose 300 mg/kg, 24 hours. The procedure:
2. Determination of Minimum Toxic Dose
Maximum doses of 300 mg/kg of the test substance were administered orally to male mice weighing 20-25 g. The animals were observed carefully for 3 hours for toxicity symptoms. In addition, all symptoms and deaths were recorded over a period of 24 hours after administration. Associated symptoms were also observed and recorded. If death or severe toxic symptoms were observed, additional mice were administered increasingly lower doses. The lowest dose which produced death or severe toxic symptoms is given in the following Table B as the minimum toxic dose.

Another data set addresses T1, histamine-(H1)-receptor (Cavia porcellus, UniProt P31389).
T1 construct: Segments of the ileum 1.5 cm long from Dunkin Hartley guinea pigs; from tissue; host or cells: isolated ileum segments of Dunkin Hartley guinea pigs
The data set is described as follows: Anti-histamine-(H1) effect, inhibition of histamine-induced contraction of isolated guinea pig ileum in vitro. The class given is cell-based, Dunkin Hartley guinea pigs. The note with it: histamine 5 × 10^-6 mole/l, test substance 10^-6 mole/l. The procedure: 3. Investigation of Anti-Histamine-(H1) Effect Based on Histamine-(H1)-Receptor Antagonism In Vitro
To investigate the histamine-(H1)-receptor antagonism of the test substances, the inhibiting effect of the substances on histamine-induced contractions of the smooth muscle was determined in vitro on the isolated organ. Isolated strips of organ from the ileum are suitable for this purpose. In an organ bath of physiological saline solution the smooth muscle strips react to the addition of histamine by contracting. […] The extent of regression of the contraction is an indication of the anti-histamine-(H1) activity of the compounds. The investigation was carried out analogously to the method originally described by Magnus (Pfluegers Arch. 102, 123 (1904)). Procedure for determining the smooth muscle contraction inhibiting effect on isolated guinea pig ileum induced by a 5×10^-6 molar histamine concentration.
Segments of the ileum 1.5 cm long from Dunkin Hartley guinea pigs having a body weight of 300 500 g were used for the test. Each strip was placed in an organ bath of 10 ml of physiological saline solution according to Krebs-Henseleit and attached to a conventional apparatus for isotonic measurement of changes in length of the ileum strips (automated Celaster measuring apparatus), so that the tissue was under 1 g of tension. The bath was kept at a pH of 7.4 and gassed with a mixture of 5% CO2 and 95% 02. After an equilibration phase, an isotonic contraction of the tissue was induced by adding histamine in a final concentration of 5×10^-6 mole/liter and washing it out again after a contact time of 30 seconds. Only tissues samples from which three reproducible contractions were obtained at 10 minute intervals were used in the subsequent test. The test substances were then added in a final concentration of 10^-6 mole/liter, and after 30 seconds contact time histamine was again added up to a concentration of 5×10^-6 mole/liter. The resulting contractions were measured over 30 seconds. The tissue was then washed several times over a period of 10 minutes. Histamine was then added again to stimulate a contraction. The resulting contractions were again measured over 30 seconds. The difference between the amplitude of the contraction obtained by histamine addition alone and the amplitude of the contraction obtained in the presence of the test substance was determined and expressed in terms of % inhibition.
The inhibiting effects on the contractions induced by histamine 30 seconds after administration of the test substance and on the contractions induced by the addition of histamine 10 minutes later are listed in the table.

The mark [5] stands for this setting: rats, 2 × 10^-5 mole/kg dose per os, one hour before ovalbumin challenge.
The mark [6] stands for this setting: rats, 2 × 10^-5 mole/kg dose per os, one hour before challenge.

The record followed here is patent US5283243A, “Piperidinoalkylbenzoxazine and piperidinoalkylbenzothiazine compounds, and medicaments containing them” (Kali-Chemie Pharma GmbH, priority 1990, dated 1994).

Read-outs that look alike come from different tables or passages of the source.

T1 sequence (P31389 whole entry): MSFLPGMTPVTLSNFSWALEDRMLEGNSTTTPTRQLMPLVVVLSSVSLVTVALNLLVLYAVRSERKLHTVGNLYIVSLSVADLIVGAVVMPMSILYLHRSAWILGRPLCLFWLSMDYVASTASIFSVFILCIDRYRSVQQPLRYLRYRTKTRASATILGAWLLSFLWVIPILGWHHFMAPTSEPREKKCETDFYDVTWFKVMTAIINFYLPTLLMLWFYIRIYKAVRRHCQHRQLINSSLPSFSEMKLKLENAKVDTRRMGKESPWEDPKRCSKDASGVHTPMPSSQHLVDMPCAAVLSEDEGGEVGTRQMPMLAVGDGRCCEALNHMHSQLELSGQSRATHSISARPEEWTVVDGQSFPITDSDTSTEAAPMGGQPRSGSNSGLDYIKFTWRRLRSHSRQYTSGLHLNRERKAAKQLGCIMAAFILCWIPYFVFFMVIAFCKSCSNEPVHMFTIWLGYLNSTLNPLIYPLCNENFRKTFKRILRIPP

Turning to `O=C1Nc2ccccc2SC1CCCCN1CCC(Nc2nc3ccccc3n2Cc2ccc(F)cc2)CC1` (stereo not drawn) [Example 1, 2-{4-[4-(N-(1-(4-fluorophenylmethyl)-1H-benzimidazol-2-yl)-amino)-piperidin-1-yl]-butyl}-2H-1,4-benzothiazine-3(4H)-one], the inhibition in vivo at 20 µmol/kg in data set [1] (setting [5]) and in data set [2] (setting [6]) was 85% in each case. For the same molecule, the inhibition at 10 µM came to 52% in data set [3] and 87% in data set [4].
On to `S=C1Nc2ccccc2OC1CCCN1CCC(Cc2ccccc2)CC1` (stereo not drawn) [Example 3, 2-[3-(4-benzylpiperidin-1-yl)-propyl]-2H-1,4-benzoxazine-3(4H)-thione], for which the Minimum toxic dose in the data set on mice is recorded as 300 mg/kg. The inhibition at 10 µM in data set [3] was 17%; in data set [4], 16%.
For the molecule `O=C1Nc2ccccc2OC1CCCCN1CCC(c2ccccc2)CC1` (stereo not drawn) [Example 9], on histamine-(H1)-receptor (after 30 seconds), the “in vitro (H1)-receptor antagonism, % inhibition of histamine-induced ileum contractions after 30 seconds” value is listed as 35%. In addition, at histamine-(H1)-receptor (after 10 minutes), the “in vitro (H1)-receptor antagonism, % inhibition of histamine-induced ileum contractions after 10 minutes” value was 12%.
With `O=C(c1ccc(F)cc1)C1CCN(C2Sc3ccccc3NC2=O)CC1` (stereo not drawn) [Example 4, 2-[4-(4-fluorobenzoyl)-piperidin-1-yl]-2H-1,4-benzothiazine-3(4H)-one], in the data set on mice, the Minimum toxic dose is reported as 300 mg/kg. Also, the inhibition at 10 µM in data set [3] worked out at 71%; in data set [4], 0%.
With `O=C1Nc2ccccc2SC1CCCCN1CCC(O)(c2ccccc2)CC1` (stereo not drawn) [Example 11], the values for the inhibition in vivo at 20 µmol/kg in data set [1] (setting [5]) and in data set [2] (setting [6]) were 45% and 20%, respectively.
Regarding `O=C1Nc2ccccc2OC1CCCCN1CC=C(c2ccccc2)CC1` (stereo not drawn) [Example 12], the inhibition in vivo at 20 µmol/kg in data set [1] (setting [5]) was found to be 35%; in data set [2] (setting [6]) it was 20%.
For the molecule `N#CC1(c2ccccc2)CCN(CCCCC2Sc3ccccc3NC2=O)CC1` (stereo not drawn) [Example 15], the inhibition in vivo at 20 µmol/kg in data set [1] came out at 30%; in data set [2] it was 10%. The molecule further displayed a Minimum toxic dose in the data set on mice of 300 mg/kg.
In the case of `O=C1Nc2ccccc2SC1N1CCC(Cc2ccccc2)CC1` (stereo not drawn) [Example 16], the Minimum toxic dose in the data set on mice is given as over 300 mg/kg. Also, the inhibition at 10 µM was 70% in data set [3] and 97% in data set [4].
For `O=C1Nc2ccc(Cl)cc2SC1CCCCN1CCC(Nc2nc3ccccc3n2Cc2ccc(F)cc2)CC1` (stereo not drawn) [Example 20], the inhibition in vivo at 20 µmol/kg in data set [1] (setting [5]) is 20%; in data set [2] (setting [6]), 40%.
In the case of `O=C1Nc2ccccc2OC1CCCN1CCC(Cc2ccccc2)CC1` (stereo not drawn) [Example 2, 2-[3-(4-benzylpiperidin-1-yl)-propyl]-2H-1,4-benzoxazine-3(4H)-one], the inhibition at 10 µM turned out to be 13% in data set [3] and 54% in data set [4].
Consider `O=C1Nc2ccccc2SC1CCCCN1CC=C(c2ccccc2)CC1` (stereo not drawn) [Example 10, 2-[4-(4-phenyl-1,2,3,6-tetrahydropyridin-1-yl)-butyl]-2H-1,4-benzothiazine-3(4H)one], for which the figures for the inhibition in vivo at 20 µmol/kg in data set [1] (setting [5]) and in data set [2] (setting [6]) were 55% and 30%, respectively. The molecule also gave a Minimum toxic dose in the data set with mice of 300 mg/kg. Moreover, the inhibition at 10 µM in data set [3] is 30%; in data set [4] it was 37%.
Take `COc1ccc2c(c1)SC(CCCCN1CCC(C(=O)c3ccc(F)cc3)CC1)C(=O)N2` (stereo not drawn) [Example 18, 7-methoxy-2-(4-[4-(4-fluorobenzoyl)-piperidin-1-yl]-butyl)-2H-1,4benzothiazine-3(4H)-one]: the inhibition in vivo at 20 µmol/kg was found to be 90% in data set [1] (setting [5]) and 50% in data set [2] (setting [6]).

As a reminder, the inhibition is the percentage by which the read-out fell short of the control.
